What was measured:
[1] = target: Acetylcholinesterase (Homo sapiens, UniProt P22303); assay: Enzyme activity assay; format: biochemical; details: sarsasapogenin 10 μM
Experimental: (§1) The enzyme activity modulation was investigated using the following method: Sarsasapogenin was incubated with each enzyme plus a specific substrate for each enzyme. After the incubation period the reaction was stopped and the reduction of the specific substrate or the increase in a specific product in the absence and presence of sarsasapogenin was measured and the percent inhibition of the reaction in the presence of sarsasapogenin was calculated. The amount of enzyme used, the incubation conditions, the substrate used and the method of quantification varied depending on each specific assay.

[2] = target: Choline acetyltransferase (Homo sapiens, UniProt P28329); assay: Enzyme activity assay; format: biochemical; details: sarsasapogenin 100 μM
Experimental: as §1

[3] = target: 5-Hydroxytryptamine, 5-HT1A (Homo sapiens, UniProt P08908); assay: Binding assay; details: smilagenin 1 μM
Method in brief: (§2)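 Single-concentration screen at 1 μM. Displacement of a receptor-selective radiolabelled ligand from tissue/cell homogenate was measured after separating unbound label; values give percent inhibition of specific binding. Receptor source, radioligand and incubation varied between targets.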

[4] = target: 5-Hydroxytryptamine, 5-HT2C (Homo sapiens, UniProt P28335); assay: Binding assay; details: smilagenin 1 μM
5-Hydroxytryptamine, 5-HT2C, sequence (P28335 33-458): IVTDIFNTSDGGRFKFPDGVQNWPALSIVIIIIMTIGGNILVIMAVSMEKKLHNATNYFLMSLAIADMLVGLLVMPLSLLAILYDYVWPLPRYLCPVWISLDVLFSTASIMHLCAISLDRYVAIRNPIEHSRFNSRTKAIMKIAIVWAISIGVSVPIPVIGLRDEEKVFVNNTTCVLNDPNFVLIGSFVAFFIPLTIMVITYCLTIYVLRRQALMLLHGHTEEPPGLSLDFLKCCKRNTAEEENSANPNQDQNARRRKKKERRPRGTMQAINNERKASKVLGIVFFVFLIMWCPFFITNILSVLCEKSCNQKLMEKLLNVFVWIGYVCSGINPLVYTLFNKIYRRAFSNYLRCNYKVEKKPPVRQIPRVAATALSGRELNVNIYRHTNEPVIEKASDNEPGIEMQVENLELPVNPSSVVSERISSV
Method in brief: as §2

[5] = target: Adensonine A3 (Homo sapiens, UniProt P0DMS8); assay: Binding assay; details: smilagenin 1 μM
Method in brief: as §2

[6] = target: Adrenergic α1A (Rattus norvegicus, UniProt P43140); assay: Binding assay; details: smilagenin 1 μM
Adrenergic α1A, sequence (P43140 whole entry): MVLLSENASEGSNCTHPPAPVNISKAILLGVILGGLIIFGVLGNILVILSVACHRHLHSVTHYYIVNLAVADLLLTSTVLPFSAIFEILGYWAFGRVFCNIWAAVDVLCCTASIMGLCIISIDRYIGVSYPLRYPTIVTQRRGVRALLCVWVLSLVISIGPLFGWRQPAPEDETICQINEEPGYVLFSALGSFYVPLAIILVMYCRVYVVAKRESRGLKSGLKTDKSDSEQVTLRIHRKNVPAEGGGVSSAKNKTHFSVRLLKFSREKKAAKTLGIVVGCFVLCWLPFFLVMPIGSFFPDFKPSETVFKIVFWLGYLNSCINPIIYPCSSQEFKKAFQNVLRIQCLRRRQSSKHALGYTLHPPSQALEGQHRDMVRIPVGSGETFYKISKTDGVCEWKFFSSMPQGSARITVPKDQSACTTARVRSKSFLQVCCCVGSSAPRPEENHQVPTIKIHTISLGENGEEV
Method in brief: as §2

[7] = target: Adrenergic α1D (Homo sapiens, UniProt P25100); assay: Binding assay; details: smilagenin 1 μM
Adrenergic α1D, sequence (P25100 whole entry): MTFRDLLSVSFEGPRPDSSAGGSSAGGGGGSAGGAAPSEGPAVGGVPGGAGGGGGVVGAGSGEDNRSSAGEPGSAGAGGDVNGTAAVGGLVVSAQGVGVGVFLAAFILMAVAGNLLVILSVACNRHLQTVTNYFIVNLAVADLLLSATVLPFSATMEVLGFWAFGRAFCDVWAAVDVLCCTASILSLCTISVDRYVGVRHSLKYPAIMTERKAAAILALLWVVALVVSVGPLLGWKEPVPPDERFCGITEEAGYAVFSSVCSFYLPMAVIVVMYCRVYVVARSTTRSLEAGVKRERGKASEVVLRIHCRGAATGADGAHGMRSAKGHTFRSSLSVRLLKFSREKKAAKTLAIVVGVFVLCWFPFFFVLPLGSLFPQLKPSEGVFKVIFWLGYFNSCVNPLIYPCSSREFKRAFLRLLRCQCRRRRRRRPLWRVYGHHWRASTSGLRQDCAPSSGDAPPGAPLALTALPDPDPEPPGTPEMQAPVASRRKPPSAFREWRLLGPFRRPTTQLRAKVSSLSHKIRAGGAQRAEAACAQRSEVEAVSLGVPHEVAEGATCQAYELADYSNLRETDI
Method in brief: as §2

[8] = target: Adrenergic α2A (Homo sapiens, UniProt P08913); assay: Binding assay; details: smilagenin 1 μM
Method in brief: as §2

[9] = target: Adrenergic β1 (Homo sapiens, UniProt P08588); assay: Binding assay; details: smilagenin 1 μM
Adrenergic β1, sequence (P08588 whole entry): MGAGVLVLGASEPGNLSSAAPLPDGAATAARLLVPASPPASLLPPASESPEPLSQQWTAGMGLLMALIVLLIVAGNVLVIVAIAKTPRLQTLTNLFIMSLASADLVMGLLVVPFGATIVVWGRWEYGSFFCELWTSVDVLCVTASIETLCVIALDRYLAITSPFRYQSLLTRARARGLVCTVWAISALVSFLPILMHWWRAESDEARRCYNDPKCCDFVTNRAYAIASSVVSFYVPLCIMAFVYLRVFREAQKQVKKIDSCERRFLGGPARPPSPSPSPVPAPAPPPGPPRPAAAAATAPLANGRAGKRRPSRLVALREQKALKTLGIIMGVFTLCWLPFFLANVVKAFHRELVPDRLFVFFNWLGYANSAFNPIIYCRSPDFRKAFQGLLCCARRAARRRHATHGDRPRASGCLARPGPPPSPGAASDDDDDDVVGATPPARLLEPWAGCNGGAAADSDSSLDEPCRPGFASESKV
Method in brief: as §2

[10] = target: Adrenergic β3 (Homo sapiens, UniProt P13945); assay: Binding assay; details: smilagenin 1 μM
Method in brief: as §2

[11] = target: Androgen (testosterone) AR (Rattus norvegicus, UniProt P15207); assay: Binding assay; details: smilagenin 1 μM
Androgen (testosterone) AR, sequence (P15207 whole entry S389L): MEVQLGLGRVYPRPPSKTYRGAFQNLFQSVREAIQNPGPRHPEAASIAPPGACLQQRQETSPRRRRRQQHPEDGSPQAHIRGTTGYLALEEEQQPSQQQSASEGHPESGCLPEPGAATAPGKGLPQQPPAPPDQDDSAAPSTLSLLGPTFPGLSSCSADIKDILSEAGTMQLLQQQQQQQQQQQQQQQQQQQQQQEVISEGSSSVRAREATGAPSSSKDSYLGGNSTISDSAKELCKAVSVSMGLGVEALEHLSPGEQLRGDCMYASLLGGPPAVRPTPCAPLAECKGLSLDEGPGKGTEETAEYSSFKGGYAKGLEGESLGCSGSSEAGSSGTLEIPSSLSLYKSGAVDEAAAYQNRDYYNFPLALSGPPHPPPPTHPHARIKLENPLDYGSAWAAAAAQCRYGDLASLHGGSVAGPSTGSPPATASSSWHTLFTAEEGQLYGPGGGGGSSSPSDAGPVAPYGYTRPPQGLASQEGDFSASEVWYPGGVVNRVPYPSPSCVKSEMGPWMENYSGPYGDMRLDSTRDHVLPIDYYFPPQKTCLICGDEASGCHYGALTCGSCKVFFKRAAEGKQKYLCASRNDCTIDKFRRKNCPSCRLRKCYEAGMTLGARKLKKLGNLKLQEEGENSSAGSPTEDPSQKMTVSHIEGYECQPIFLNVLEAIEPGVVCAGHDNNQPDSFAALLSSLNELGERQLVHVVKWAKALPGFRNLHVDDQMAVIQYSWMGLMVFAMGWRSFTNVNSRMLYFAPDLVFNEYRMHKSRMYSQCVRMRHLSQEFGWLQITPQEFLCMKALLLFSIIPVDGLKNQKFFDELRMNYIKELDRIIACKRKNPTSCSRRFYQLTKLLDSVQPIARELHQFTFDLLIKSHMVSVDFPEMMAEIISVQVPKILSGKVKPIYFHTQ
Method in brief: as §2

[12] = target: Angiotensin AT1 (Homo sapiens, UniProt P30556); assay: Binding assay; details: smilagenin 1 μM
Method in brief: as §2

[13] = target: Chemokine CCR5 (Homo sapiens, UniProt P51681); assay: Binding assay; details: smilagenin 1 μM
Method in brief: as §2

[14] = target: Chemokine CXCR1 (IL-8RB) (Homo sapiens, UniProt P25025); assay: Binding assay; details: smilagenin 1 μM
Method in brief: as §2

[15] = target: Dopamine D3 (Homo sapiens, UniProt P35462); assay: Binding assay; details: smilagenin 1 μM
Method in brief: as §2

[16] = target: T1, G Protein-Coupled Receptor GPR 103 (Homo sapiens, UniProt Q96P65); assay: Binding assay; details: smilagenin 1 μM
T1 construct: host or cells: tissue or cell homogenate (not specified)
T1 sequence (Q96P65 whole entry): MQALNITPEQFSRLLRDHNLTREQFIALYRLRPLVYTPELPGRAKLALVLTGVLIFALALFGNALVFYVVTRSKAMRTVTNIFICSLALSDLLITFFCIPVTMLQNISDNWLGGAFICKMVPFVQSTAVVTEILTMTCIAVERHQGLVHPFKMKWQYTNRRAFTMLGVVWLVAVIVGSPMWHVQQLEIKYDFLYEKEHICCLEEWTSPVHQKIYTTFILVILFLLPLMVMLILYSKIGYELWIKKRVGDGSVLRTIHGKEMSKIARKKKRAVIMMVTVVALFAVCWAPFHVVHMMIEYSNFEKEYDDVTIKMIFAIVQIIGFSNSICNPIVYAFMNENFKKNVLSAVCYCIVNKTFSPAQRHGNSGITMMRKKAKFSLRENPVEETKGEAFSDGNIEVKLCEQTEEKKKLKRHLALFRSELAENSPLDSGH
Method in brief: as §2

[17] = target: T2, Growth Hormone Secretagogue (GHS, Ghrelin) (Homo sapiens, UniProt Q92847); assay: Binding assay; details: smilagenin 1 μM
T2 construct: host or cells: tissue or cell homogenate (not specified)
T2 sequence (Q92847 whole entry): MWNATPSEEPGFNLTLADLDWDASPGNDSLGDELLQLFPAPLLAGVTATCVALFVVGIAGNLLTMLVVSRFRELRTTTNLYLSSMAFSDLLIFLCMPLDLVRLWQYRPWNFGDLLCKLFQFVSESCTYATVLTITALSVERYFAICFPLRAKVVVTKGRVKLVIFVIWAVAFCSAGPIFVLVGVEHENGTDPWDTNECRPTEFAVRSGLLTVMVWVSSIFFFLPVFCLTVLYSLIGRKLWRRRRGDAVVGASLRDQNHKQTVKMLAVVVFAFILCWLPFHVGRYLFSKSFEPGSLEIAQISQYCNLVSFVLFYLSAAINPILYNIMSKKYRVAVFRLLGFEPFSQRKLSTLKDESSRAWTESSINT
Method in brief: as §2

[18] = target: T3, Muscarinic M4 (Homo sapiens, UniProt P08173); assay: Binding assay; details: smilagenin 1 μM
T3 construct: host or cells: tissue or cell homogenate, not specified
T3 sequence (P08173 whole entry): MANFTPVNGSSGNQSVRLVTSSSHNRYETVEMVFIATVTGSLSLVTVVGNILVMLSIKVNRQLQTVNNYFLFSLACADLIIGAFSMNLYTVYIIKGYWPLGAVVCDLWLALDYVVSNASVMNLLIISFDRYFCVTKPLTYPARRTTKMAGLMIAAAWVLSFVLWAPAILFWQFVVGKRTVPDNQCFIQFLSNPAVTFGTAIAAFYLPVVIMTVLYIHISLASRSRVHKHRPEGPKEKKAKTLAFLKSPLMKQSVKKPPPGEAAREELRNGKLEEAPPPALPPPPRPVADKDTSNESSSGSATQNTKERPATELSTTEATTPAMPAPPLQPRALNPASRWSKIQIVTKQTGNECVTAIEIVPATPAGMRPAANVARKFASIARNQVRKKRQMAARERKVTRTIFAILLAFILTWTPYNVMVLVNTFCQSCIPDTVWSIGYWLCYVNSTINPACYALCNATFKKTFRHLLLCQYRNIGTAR
Method in brief: as §2

[19] = target: N-Formyl Peptide Receptor-Like FPRL1 (Homo sapiens, UniProt P25090); assay: Binding assay; details: smilagenin 1 μM
Method in brief: as §2

[20] = target: Neuropeptide Y Y1 (Homo sapiens, UniProt P25929); assay: Binding assay; details: smilagenin 1 μM
Method in brief: as §2

[21] = target: Opiate κ (OP2, KOP) (Homo sapiens, UniProt P41145); assay: Binding assay; details: smilagenin 1 μM
Method in brief: as §2

[22] = target: Opiate μ (OP3, MOP) (Homo sapiens, UniProt P35372); assay: Binding assay; details: smilagenin 1 μM
Method in brief: as §2

[23] = test system: Potassium Channel [KATP]; assay: Binding assay; details: smilagenin 1 μM
Method in brief: as §2

[24] = target: Prostanoid DP (Homo sapiens, UniProt Q13258); assay: Binding assay; details: smilagenin 1 μM
Prostanoid DP, sequence (Q13258 whole entry): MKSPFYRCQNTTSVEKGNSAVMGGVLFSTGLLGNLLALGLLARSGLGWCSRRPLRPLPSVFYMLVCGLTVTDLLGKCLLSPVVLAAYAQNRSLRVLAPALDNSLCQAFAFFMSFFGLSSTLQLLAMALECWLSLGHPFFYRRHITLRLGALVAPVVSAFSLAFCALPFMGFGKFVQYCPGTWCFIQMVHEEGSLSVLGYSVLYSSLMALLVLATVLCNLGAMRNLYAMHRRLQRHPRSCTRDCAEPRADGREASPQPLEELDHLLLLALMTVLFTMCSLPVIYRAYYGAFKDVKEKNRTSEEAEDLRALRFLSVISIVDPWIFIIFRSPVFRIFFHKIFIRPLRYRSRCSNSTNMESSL
Method in brief: as §2

[25] = target: Somatostatin sst5 (Homo sapiens, UniProt P35346); assay: Binding assay; details: smilagenin 1 μM
Method in brief: as §2

[26] = target: Thyrotropin Releasing Hormone (TRH) (Rattus norvegicus, UniProt Q01717); assay: Binding assay; details: smilagenin 1 μM
Method in brief: as §2

[27] = target: Transporter, Dopamine (DAT) (Homo sapiens, UniProt Q01959); assay: Binding assay; details: smilagenin 1 μM
Method in brief: as §2

[28] = target: T4, Urotensin II (Homo sapiens, UniProt Q9UKP6); assay: Binding assay; details: smilagenin 1 μM
T4 construct: host or cells: tissue or cell homogenate, not specified
T4 sequence (Q9UKP6 whole entry): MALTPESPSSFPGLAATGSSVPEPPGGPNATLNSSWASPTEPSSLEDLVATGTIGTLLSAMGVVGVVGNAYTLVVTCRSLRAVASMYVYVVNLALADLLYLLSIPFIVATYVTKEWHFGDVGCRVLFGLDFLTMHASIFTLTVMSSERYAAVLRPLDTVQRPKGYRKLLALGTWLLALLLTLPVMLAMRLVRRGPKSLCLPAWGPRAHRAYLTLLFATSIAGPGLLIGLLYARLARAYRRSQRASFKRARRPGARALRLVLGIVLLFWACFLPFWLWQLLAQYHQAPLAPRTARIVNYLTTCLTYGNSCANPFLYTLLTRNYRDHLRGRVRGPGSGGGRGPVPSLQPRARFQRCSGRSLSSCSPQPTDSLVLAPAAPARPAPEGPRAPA
Method in brief: as §2

[29] = test system: Transporter, Monoamine; assay: Binding assay; parameters: species or system Rabbit; details: smilagenin 1 μM
Experimental: The receptor binding was investigated using the following method: Sarsasapogenin was incubated with tissue or cell homogenate that expressed the receptor of interest and a known concentration a radiolabelled compound with affinity for the receptor of interest. After the incubation period the non-bound radiolabelled compound was removed and the amount of specific binding was quantified. The amount of specific binding in the presence and absence of sarsasapogenin were compared and the percent inhibition of the binding of the radiolabelled compound by sarsasapogenin was calculated. The source of the receptor, the incubation conditions, the radiolabelled compound used varied depending on each specific assay.
Using the same methods as described above, the binding of smilagenin (1 μM) to the receptors listed in Table 2 below, and the effect of smilagenin on the activity of the enzymes listed in Table 2 below, were investigated.

[30] = test system: GDNF mRNA; assay: GDNF mRNA in rat dopaminergic neurones following exposure to MPP+; format: cell-based; details: 10 μM after MPP+ 2 μM 48 h
Experimental: Rat dopaminergic neurones were prepared using a slightly modified previously described method (Brouard et al., Journal of Neuroscience, 1992, 12, pp. 1409-1415). After 5 days in culture MPP^+ (2 μM), a specific dopaminergic neurotoxin, or vehicle (saline) was added for 48 h. The culture medium was then replaced with fresh medium containing smilagenin (10 μM) or vehicle (DMSO, 0.25%) and the level of GDNF mRNA in the dopaminergic neurones was assessed after 10 min and 2, 24, 48 and 72 h by rt RT-PCR.

C[C@H]1CC[C@@]2(OC1)O[C@H]1C[C@H]3[C@@H]4CC[C@@H]5C[C@@H](O)CC[C@]5(C)[C@H]4CC[C@]3(C)[C@H]1[C@@H]2C [Sarsasapogenin, sarsasapogenin]
Effect (%) [1]: NS (NS = No significant response. Significance was taken as ≧30% stimulation or inhibition) | Effect (%) [2]: NS (NS = No significant response. Significance was taken as ≧30% stimulation or inhibition)

C[C@@H]1CC[C@@]2(OC1)O[C@H]1C[C@H]3[C@@H]4CC[C@@H]5C[C@@H](O)CC[C@]5(C)[C@H]4CC[C@]3(C)[C@H]1[C@@H]2C [Smilagenin, smilagenin]
Effect (%) [3]: NS (NS = No significant response. Significance was taken as ≧30% stimulation or inhibition) | Effect (%) [4]: NS (NS = No significant response. Significance was taken as ≧30% stimulation or inhibition) | Effect (%) [5]: NS (NS = No significant response. Significance was taken as ≧30% stimulation or inhibition) | Effect (%) [6]: NS (NS = No significant response. Significance was taken as ≧30% stimulation or inhibition) | Effect (%) [7]: NS (NS = No significant response. Significance was taken as ≧30% stimulation or inhibition) | Effect (%) [8]: NS (NS = No significant response. Significance was taken as ≧30% stimulation or inhibition) | Effect (%) [9]: NS (NS = No significant response. Significance was taken as ≧30% stimulation or inhibition) | Effect (%) [10]: NS (NS = No significant response. Significance was taken as ≧30% stimulation or inhibition) | Effect (%) [11]: NS (NS = No significant response. Significance was taken as ≧30% stimulation or inhibition) | Effect (%) [12]: NS (NS = No significant response. Significance was taken as ≧30% stimulation or inhibition) | Effect (%) [13]: NS (NS = No significant response. Significance was taken as ≧30% stimulation or inhibition) | Effect (%) [14]: NS (NS = No significant response. Significance was taken as ≧30% stimulation or inhibition) | Effect (%) [15]: NS (NS = No significant response. Significance was taken as ≧30% stimulation or inhibition) | Effect (%) [16]: NS (NS = No significant response. Significance was taken as ≧30% stimulation or inhibition) | Effect (%) [17]: NS (NS = No significant response. Significance was taken as ≧30% stimulation or inhibition) | Effect (%) [18]: NS (NS = No significant response. Significance was taken as ≧30% stimulation or inhibition) | Effect (%) [19]: NS (NS = No significant response. Significance was taken as ≧30% stimulation or inhibition) | Effect (%) [20]: NS (NS = No significant response. Significance was taken as ≧30% stimulation or inhibition) | Effect (%) [21]: NS (NS = No significant response. Significance was taken as ≧30% stimulation or inhibition) | Effect (%) [22]: NS (NS = No significant response. Significance was taken as ≧30% stimulation or inhibition) | Effect (%) [23]: NS (NS = No significant response. Significance was taken as ≧30% stimulation or inhibition) | Effect (%) [24]: NS (NS = No significant response. Significance was taken as ≧30% stimulation or inhibition) | Effect (%) [25]: NS (NS = No significant response. Significance was taken as ≧30% stimulation or inhibition) | Effect (%) [26]: NS (NS = No significant response. Significance was taken as ≧30% stimulation or inhibition) | Effect (%) [27]: NS (NS = No significant response. Significance was taken as ≧30% stimulation or inhibition) | Effect (%) [28]: NS (NS = No significant response. Significance was taken as ≧30% stimulation or inhibition) | Effect (%) [29]: NS (NS = No significant response. Significance was taken as ≧30% stimulation or inhibition) | Relative amount of GDNF mRNA (% of control at 0.167 h) ([30]; smilagenin exposure 0.167 h): 119.9 ± 19.8 % of control at 0.167 h | Relative amount of GDNF mRNA (% of control at 0.167 h) ([30]; smilagenin exposure 2 h): 581.6 ± 66.3 % of control at 0.167 h | Relative amount of GDNF mRNA (% of control at 0.167 h) ([30]; smilagenin exposure 24 h): 3319.1 ± 830.3 % of control at 0.167 h | Relative amount of GDNF mRNA (% of control at 0.167 h) ([30]; smilagenin exposure 48 h): 2185.3 ± 304.1 % of control at 0.167 h | Relative amount of GDNF mRNA (% of control at 0.167 h) ([30]; smilagenin exposure 72 h): 1413.5 ± 352.1 % of control at 0.167 h

— patent publication US20120034193A1, “TREATMENT OF NEUROTROPHIC FACTOR MEDIATED DISORDERS” (priority 2009, published 2012)
